This is an account of results in PMC9481312, “In Vitro α-Glycosidase Inhibition and In Silico Studies of Flavonoids Isolated from Pistacia integerrima Stew ex Brandis” (BioMed Research International, 2022).

This test concerns the target T1, α-glycosidase (intestinal α-glycosidase; α-glucosidase).
T1 construct: gene Si; crude native extract: supernatant of sonicated rat intestinal acetone powder in saline (100:1 w/v); not purified, isoenzyme not identified
Description: colorimetric p-nitrophenyl release, 96-well plate. It counts as biochemical. The note with it: 5 mM p-nitrophenyl-α-D-glucopyranoside, 100 mM phosphate, pH 6.8, DMSO, 5 min preincubation; crude rat intestinal extract. The text has this: colorimetric p-nitrophenyl release, 96-well plate on α-glycosidase (intestinal α-glycosidase; α-glucosidase)
A word on the IC50: it is the concentration at which inhibition is half-maximal. Consider `C[C@H]1O[C@H](O[C@H]2[C@H](O)[C@@H](O)[C@@H](O[C@H]3[C@H](O)[C@@H](O)C(O)O[C@@H]3CO)O[C@@H]2CO)[C@H](O)[C@@H](O)[C@@H]1N[C@H]1C=C(CO)[C@@H](O)[C@H](O)[C@H]1O` (stereo partly shown) [acarbose, reference compound], for which the half-inhibitory concentration (IC50) turned out to be 841 ± 1.34 µM.
Compound `O=C1c2c(O)cc(O)cc2O[C@H](c2ccc(O)cc2)[C@H]1O` [compound 1, 3,5,7,4′-tetrahydroxy-flavanone] showed an IC50 of 183.2 ± 1.22 µM. Compared with the last compound, the IC50 is about 4.6-fold lower.
With `O=C1C[C@@H](c2ccc(O)cc2)Oc2cc(O)cc(O)c21` [compound 2, naringenin] the figure was 754.2 ± 1.76 µM; with `COc1cc(O)c2c(c1)OC(c1ccc(O)cc1)C(O)C2=O` (stereo not shown) [compound 3, 3,5,4′-trihydroxy,7-methoxy-flavanone], 790 ± 2.31 µM; with `COc1cc(O)c2c(c1)O[C@H](c1ccc(O)cc1)CC2=O` [compound 4, sakuranetin], 287.3 ± 2.09 µM.
Consider `COc1cc(-c2oc3cc(O)c(OC)c(O)c3c(=O)c2O)ccc1O` [compound 5, spinacetin], for which half-maximal inhibition (IC50) required 826.4 ± 1.87 µM.
In turn, `COc1c(O)cc2oc(-c3ccc(O)c(O)c3)c(O)c(=O)c2c1O` [compound 6, patuletin] gave an IC50 of 743.1 ± 1.32 µM. This IC50 and that of the compound before are within 1.5-fold of each other.
